Assay results from patent US8093229B2, “Alkynyl pyrrolo[2,3-d]pyrimidines and related analogs as HSP90-inhibitors” (Conforma Therapeutics Corporation, priority 2005, dated 2012).

Legend:
Type in all cases: cell-based
[1] = test system: MCF7 breast carcinoma cells; experiment: MTS assay / secondary assay of killing tumor cells, MCF7; settings: for IC50: Homo sapiens, MCF7
Experimental: (§1) The difference in potency index between alkynes and non-alkynes measured by a secondary assay is also striking. The secondary assay measures the efficiency of killing tumor cells. […] EC50 is defined as the amount of compound added to effect a 50% reduction in viable cell number. Selected compounds were tested on cells of MCF7 and BT474 breast tumor cell lines. […] TABLE 2 summarized the result of the assay.
(§2) 3-(4,5-dimethylthiazol-2-yl)-5-(3-carboxymethoxyphenyl)-2-(4-sulfophenyl)-2H-tetrazolium assays measure the cytotoxicity of geldanamycin derivatives. MTS (3-(4,5-dimethylthiazol-2-yl) -5-(3-carboxymethoxyphenyl)-2-(4-sulfophenyl)-2H-tetrazolium) is a tetrazolium dye that is converted to a formazan product by dehydrogenase enzymes of metabolically active cells (Corey, A. et al. “Use of an aqueous soluble tetrazolium/formazan assay for cell growth assays in culture,” Cancer Commun. 1991, 3, 207-212). Cells were seeded in 96 well plates at 2000 cells/well and allowed to adhere overnight in Dulbecco's modified Eagle's medium supplemented with 10% fetal bovine serum. The final culture volume was 100 μl. Viable cell number was determined by using the Celltiter 96 AQueous Non-radioactive Cell Proliferation Assay (Promega, Madison Wis.). The MTS/PMS (phenazine methosulfate) solution was mixed at a ratio of 20:1, and 20 μL was added per well to 100 μl of culture medium. After 2-4 hours, the formation of the formazan product was measured at 490 nm absorbance using a multiwell plate spectrophotometer. Background was determined by measuring the Abs 490 nm of cell culture medium and MTS-PMS in the absence of cells and was subtracted from all values. Percent viable cells was calculated as follows: % viable cells=(Abs at 490 nm treated cells/Abs at 490 nm untreated cells)×100
The effect of selected compounds of the invention on MCF7 breast carcinoma cells according to the MTS assay is summarized in table 3. IC50 was defined as the concentration of the compound which gave rise to 50% reduction in viable cell number.

[2] = test system: BT474 breast tumor cell line; experiment: MTS assay / secondary assay of killing tumor cells, BT474; settings: Homo sapiens, BT-474
Experimental: as §1, §2

[3] = test system: HER2/Neu protein; experiment: Her2 degradation assay; settings: MCF7 cells, 16 h
Excerpt: [drawing 219] wherein R^3′ is not alkynyl, which were disclosed in U.S. patent application Ser. No. 10/945,851 and PCT Application US04/31248. The pyrrolopyrimidine compounds specified in the EXAMPLE sections of the above patent applications carry either no substituent or a substituted alkyl group. […] A simple alkyl or a substituted alkyl at C-5 (ie R^3=alkyl or substituted alkyl) can only bring two-fold additional activity. Conversely, if C-5 is alkyne substituted, the potency increases approximately 10-20 fold. (See, Series A: compounds A, B, C and D below).
Many cancers are associated with the over expression Her2 protein. It has been shown that compounds able to diminish Her2 levels show good promise as anti-cancer agents.
MCF7 breast carcinoma cells (ATCC) were grown in Dulbecco's modified Eagle's medium (DMEM) containing 10% fetal bovine serum (FBS) and 10 mM HEPES, and plated in 24 well plates (50% confluent). […] Samples were analyzed using a FACSCalibur™ flow cytometer (Becton Dickinson, San Jose, Calif.) equipped with Argon-ion laser that emits 15 mW of 488 nm light for excitation of the PE fluorochrome. […] A fluorescence histogram was generated and the mean fluorescence intensity (MFI) of each sample was determined using Cellquest software. […] Percent degradation of Her2 was calculated as follows: % Her2 degraded=[(MFI untreated cells−MFI treated cells)/MFI untreated cell]×100. […]

Row | SMILES | IC50 [1] [nM] | IC50 [2] [nM] | potency index relative to 17-AAG ([1]; cell line not specified, MCF7 and BT474 tested) | IC50 [3] [nM]
1 | COc1c(C)cnc(Cn2cc(C#CCOC(=O)CN(C)C)c3c(Cl)nc(N)nc32)c1C [Example 22, Dimethylamino-acetic acid 3-[2-amino-4-chloro-7-(4-methoxy-3,5-dimethyl-pyridin-2-ylmethyl)-7H-pyrrolo[2,3-d]pyrimidin-5-yl]-prop-2-ynyl ester] | 200 | 20 |  | 
2 | CCN(CC)C(=O)CCC#Cc1cn(Cc2ncc(C)c(OC)c2C)c2nc(N)nc(Cl)c12 [Example 10] | 700 | 50 |  | 
3 | COc1c(C)cnc(Cn2cc(C#CCCC(N)=O)c3c(Cl)nc(N)nc32)c1C [Example 12, 5-[2-Amino-4-chloro-7-(4-methoxy-3,5-dimethyl-pyridin-2-ylmethyl)-7H-pyrrolo[2,3-d]pyrimidin-5-yl]-pent-4-ynoic acid amide] | 30 | 20 |  | 
4 | COc1c(C)cnc(Cn2cc(C#CCCCN)c3c(Cl)nc(N)nc32)c1C [Example 16, 5-(5-Amino-pent-1-ynyl)-4-chloro-7-(4-methoxy-3,5-dimethyl-pyridin-2-ylmethyl)-7H-pyrrolo [2,3-d]pyrimidin-2-ylamine] | 90 | > 10000 |  | 
5 | COc1c(C)cnc(Cn2cc(C#CCCNC(C)(C)C)c3c(Cl)nc(N)nc32)c1C [Example 20, 5-(4-tert-Butylamino-but-1-ynyl)-4-chloro-7-(4-methoxy-3,5-dimethyl-pyridin-2-ylmethyl) -7H-pyrrolo[2,3-d]pyrimidin-2-ylamine] | 130 | 23 |  | 
6 | COc1c(C)cnc(Cn2cc(C#CCCN3C(=O)c4ccccc4C3=O)c3c(Cl)nc(N)nc32)c1C [H] |  |  | more potent than 17-AAG | 
7 | COc1c(C)cnc(Cn2cc(C#CCN(C(C)C)C(C)C)c3c(Cl)nc(N)nc32)c1C [Example 5, 4-Chloro-5-(3-diisopropylamino-prop-1-ynyl)-7-(4-methoxy-3,5-dimethyl-pyridin-2-ylmethyl)-7H-pyrrolo[2,3-d]pyrimidin-2-ylamine] | 100 | 80 |  | 55
8 | COc1c(C)cnc(Cn2cc(C#CCCN3CCOCC3)c3c(Cl)nc(N)nc32)c1C [Example 18] | 50 | 1000 |  | 
9 | COc1c(C)cnc(Cn2cc(C#CCCCNC(C)(C)C)c3c(Cl)nc(N)nc32)c1C [Example 21, 5-(5-tert-Butylamino-pent-1-ynyl)-4-chloro-7-(4-methoxy-3,5-dimethyl-pyridin-2-ylmethyl) -7H-pyrrolo[2,3-d]pyrimidin-2-ylamine] | 230 | 30 |  | 
10 | COc1c(C)cnc(Cn2cc(C#CCCCN3C(=O)c4ccccc4C3=O)c3c(Cl)nc(N)nc32)c1C [Example 17] | 10 | 100 |  | 
11 | COc1c(C)cnc(Cn2cc(C#CCO)c3c(Cl)nc(N)nc32)c1C [Example 1, 3-[2-amino-4-chloro-7-(4-methoxy-3,5-dimethyl-pyridin-2-ylmethyl)-7H-pyrrolo [2,3-d]pyrimidin-5-yl]-prop-2-yn-1-ol] | 130 | 20 |  | 12
12 | COc1c(C)cnc(Cn2cc(C#CCCO)c3c(Cl)nc(N)nc32)c1C [Example 2, 4-[2-Amino-4-chloro-7-(4-methoxy-3,5-dimethyl-pyridin-2-ylmethyl)-7H-pyrrolo[2,3-d]pyrimidin-5-yl]-but-3-yn-1-ol] | 13 | 6 |  | 
13 | COc1c(C)cnc(Cn2cc(C#CCCCN3CCOCC3)c3c(Cl)nc(N)nc32)c1C [Example 19] | 100 | 1000 |  | 
14 | COc1c(C)cnc(Cn2cc(C#CCCC(=O)N3CCN(C)CC3)c3c(Cl)nc(N)nc32)c1C [Example 11] | 100 | 20 |  | 
15 | COc1c(C)cnc(Cn2cc(C#CCCCCO)c3c(Cl)nc(N)nc32)c1C [Example 7, 6-[2-Amino-4-chloro-7-(4-methoxy-3,5-dimethyl-pyridin-2-ylmethyl)-7H-pyrrolo[2,3-d]pyrimidin-5-yl]-hex-5-yn-1-ol] | 200 | 20 |  | 
16 | COc1c(C)cnc(Cn2cc(C#CCCCNC(=O)OC(C)(C)C)c3c(Cl)nc(N)nc32)c1C [Example 15, {5-[2-Amino-4-chloro-7-(4-methoxy-3,5-dimethyl-pyridin-2-ylmethyl)-7H-pyrrolo [2,3-d]pyrimidin-5-yl]-pent-4-ynyl}-carbamic acid tert-butyl ester] | 60 | 1000 |  | 
17 | COc1c(C)cnc(Cn2cc(C#CCCCO)c3c(Cl)nc(N)nc32)c1C [Example 3, 5-[2-Amino-4-chloro-7-(4-methoxy-3,5-dimethyl-pyridin-2-ylmethyl)-7H-pyrrolo[2,3-d]pyrimidin-5-yl]-pent-4-yn-1-ol] | 13 | 8 |  | 
